Data from US8633315B2, “Substituted hydroxyethyl amine compounds as beta-secretase modulators and methods of use” (Amgen Inc., priority 2007, dated 2014).
Like-named read-outs stand apart in the source and are kept apart here.

Experiments:
BACE1 = BACE1 (Homo sapiens, UniProt P56817); assay: In vitro enzymatic BACE FRET (fluorescence resonance energy transfer) assay; type: biochemical
How it was run: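 Cleavage of a quenched peptide FRET substrate (50 nM) in 0.05 M acetate pH 4.2, 10% DMSO, 100 uM genapol, 1 h incubation. Reaction stopped by Tris neutralization; fluorescence read at excitation 488 nm / […].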

[1] = tested on: Cells stably expressing Amyloid Precursor Protein (APP); assay: In vitro BACE cell-based assay (HEK cell assay): Aβ40 in conditioned medium by sandwich ELISA; details: Homo sapiens
How it was run: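 APP-stably-expressing cells were grown 24 h in DMEM/10% FBS, then treated for 24 h with 10-point doses starting at 100 μM or 10 μM, at 0.1% DMSO final. Aβ40 in conditioned medium was measured by sandwich ELISA (pAb40 capture, biotinylated 6E10 detection, europium time-resolved fluorescence); IC50 from percent inhibition.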

Abeta peptide = assay: In vivo inhibition of beta-secretase: Abeta peptide in CSF and brain after oral dosing; details: orally dosed at about 30 mg/kg; for inhibition in vivo at 30 mg/kg: Rattus norvegicus, po, CSF, read-out: reduction of Abeta peptide in the CSF of the rat
Source text: In Vivo Inhibition of Beta-Secretase
Several animal models, including mouse, rat, dog, and monkey, may be used to screen for inhibition of beta-secretase activity in vivo following administration of a test compound sample. Animals used in this invention can be wild type, transgenic, or gene knockout animals. For example, the Tg2576 mouse model, prepared and conducted as described in Hsiao et al., 1996, Science 274, 99-102, and other non-transgenic or gene knockout animals are useful to analyze in vivo inhibition of Amyloid beta peptide (Abeta) production in the presence of inhibitory test compounds. Generally, 2 to 18 month old Tg2576 mice, gene knockout mice or non-transgenic animals are administered test compounds formulated in vehicles, such as cyclodextran, phosphate buffers, hydroxypropyl methylcellulose or other suitable vehicles. […] A separate group of animals receive 2% hydroxypropyl methylcellulose, 1% Tween80 alone, containing no test compound, and serve as a vehicle-control group. At the end of the test period, animals are sacrificed and brain tissues, plasma or cerebrospinal fluid are collected. Brains are either homogenized in 10 volumes (w/v) of 0.2% diethylamine (DEA) in 50 mM NaCl (Best et al., 2005, Journal of Pharmacology and Experimental Therapeutics, 313, 902-908), or in 10 volumes of 0.5% TritonX-100 in Tris-buffered saline (pH at about 7.6). Homogenates are centrifuged at 355,000 g, 4° C. for 30 minutes. CSF or brain supernatants are then analyzed for the presence of Abeta peptide by specific sandwich ELISA assays based on ECL (Electrochemiluminescence) technology. For example, rat Abeta40 is measured using biotinylated-4G8 (Signet) as a capture antibody and Fab40 (an in-house antibody specific to the C-terminal of Abeta40) as a detection antibody. For example, 4 hours after administration of 30 mg/kg oral dose of the test compound in 2% hydroxypropyl methylcellulose, 1% Tween80 (pH2.2) to 200 g male Sprague Dawley rats, Abeta peptide levels are measured for reduction by X % and Y % in cerebrospinal fluid and brain, respectively, when compared to the levels measured in the vehicle-treated or control […].
Actual vehicles used: Oral: 2% HPMC, 1% Tween80, pH 2.2
• IV: 5% EtOH, 45% Propylene glycol in 5% Dextrose

CYP3A4 (CYP3A) = CYP3A4 (CYP3A) (Homo sapiens, UniProt P08684); assay: CYP3A inhibition assay (midazolam, pooled human liver microsomes); type: in vitro ADME; details: human, pooled human liver microsomes, pH 7.4, probe midazolam (printed as about […]); read-out: 3A4 IC50
[2] = Microsomal stability assay, human liver microsomes; type: in vitro ADME
Source text: (§1) Microsomal Stability Assay

[3] = Microsomal stability assay, rat liver microsomes; type: in vitro ADME
Source text: as §1

[4] = HEK293, 24 h, Aβ40 in conditioned medium after 24 h incubation

BACE1, sequence (P56817 46-501, species assumed): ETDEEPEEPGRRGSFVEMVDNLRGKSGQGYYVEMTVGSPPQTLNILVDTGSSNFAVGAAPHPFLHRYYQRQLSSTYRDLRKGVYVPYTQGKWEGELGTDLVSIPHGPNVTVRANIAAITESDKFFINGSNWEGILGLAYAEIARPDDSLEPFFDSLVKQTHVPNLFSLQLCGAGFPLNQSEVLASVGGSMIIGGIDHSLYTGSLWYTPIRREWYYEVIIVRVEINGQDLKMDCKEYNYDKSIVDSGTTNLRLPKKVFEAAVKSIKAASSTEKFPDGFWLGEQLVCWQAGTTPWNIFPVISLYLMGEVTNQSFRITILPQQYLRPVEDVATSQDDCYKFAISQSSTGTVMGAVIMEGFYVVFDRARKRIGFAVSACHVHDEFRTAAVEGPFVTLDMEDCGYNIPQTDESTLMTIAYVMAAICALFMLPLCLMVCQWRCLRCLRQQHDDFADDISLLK
CYP3A4 (CYP3A), sequence (P08684 2-503): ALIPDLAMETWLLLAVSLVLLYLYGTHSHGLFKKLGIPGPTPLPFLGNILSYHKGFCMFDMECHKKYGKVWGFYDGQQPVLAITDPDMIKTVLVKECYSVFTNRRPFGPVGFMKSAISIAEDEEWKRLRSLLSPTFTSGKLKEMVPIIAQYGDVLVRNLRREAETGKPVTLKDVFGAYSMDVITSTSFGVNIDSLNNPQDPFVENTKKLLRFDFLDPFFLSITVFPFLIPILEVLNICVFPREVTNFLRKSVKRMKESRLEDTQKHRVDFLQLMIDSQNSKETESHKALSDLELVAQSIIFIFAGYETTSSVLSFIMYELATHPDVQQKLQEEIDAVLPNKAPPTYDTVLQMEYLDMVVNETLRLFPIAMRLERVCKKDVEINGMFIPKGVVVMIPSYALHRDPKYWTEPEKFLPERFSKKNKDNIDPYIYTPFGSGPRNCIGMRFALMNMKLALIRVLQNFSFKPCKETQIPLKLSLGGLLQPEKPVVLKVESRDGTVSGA

Row | IC50 (BACE1) [nM] | IC50 [1, 4] [nM] | IC50 (BACE1; read-out: BACE 1 FRET assay) [nM] | IC50 ([1]; HEK293) [nM] | IC50 at 10 min (CYP3A4 (CYP3A)) [nM] | HLM [2] [µL/min/mg] | RLM [3] [µL/min/mg] | Structure (SMILES) | reduction of Abeta peptide in the brain of the rat (Abeta peptide; brain) [%] | inhibition in vivo at 30 mg/kg (Abeta peptide) [%]
1 | 164 | 38 | – | – | – | – | – | C=CC[C@H](NC(=O)COC)[C@H](O)CN[C@H]1CC2(CCC2)Oc2c1cc(CC(C)(C)C)nc2NC [Example 47, N-((1S)-1-((1R)-2-(((4′S)-6′-(2,2-dimethylpropyl)-8′-(methylamino)-3′,4′-dihydrospiro[cyclobutane-1,2′-pyrano[2,3-c]pyridin]-4′-yl)amino)-1-hydroxyethyl)-3-buten-1-yl)-2-(methyloxy)acetamide] | ~25 | –
2 | – | – | 1230 | 385 | 160 | 58 | 64 | C=CC[C@H](NC(=O)COC)[C@H](O)CN[C@H]1CC2(CCC2)Oc2c1cc(CC(C)(C)C)nc2-c1nccn1C [compound 237, N-((1S)-1-((1R)-2-(((4′S)-6′-(2,2-dimethylpropyl)-8′-(1-methyl-1H-imidazol-2-yl)-3′,4′-dihydrospiro[cyclobutane-1,2′-pyrano[2,3-c]pyridin]-4′-yl)amino)-1-hydroxyethyl)-3-buten-1-yl)-2-methoxyacetamide] | – | –
3 | – | – | 40 | 1380 | 3500 | 345 | 168 | C=CC[C@H](NC(=O)COC)[C@H](O)CN[C@H]1CC2(CCC2)Oc2c1cc(CC(C)(C)C)nc2Nc1ccccc1 [compound 230] | – | –
4 | – | – | 946 | 149 | 160 | 58 | 68 | C=CC[C@H](NC(=O)COC)[C@H](O)CN[C@H]1CC2(CCC2)Oc2c1cc(CC(C)(C)C)nc2-c1cncn1C [compound 238, N-((1S)-1-((1R)-2-(((4′S)-6′-(2,2-dimethylpropyl)-8′-(1-methyl-1H-imidazol-5-yl)-3′,4′-dihydrospiro[cyclobutane-1,2′-pyrano[2,3-c]pyridin]-4′-yl)amino)-1-hydroxyethyl)-3-buten-1-yl)-2-methoxyacetamide] | – | –
5 | – | – | 268 | 345 | 500 | 551 | 152 | C=CC[C@H](NC(=O)COC)[C@H](O)CN[C@H]1CC2(CCC2)Oc2c1cc(CC(C)(C)C)nc2Nc1cccnc1 [compound 240] | – | –
6 | 16 | 35 | – | – | – | – | – | C=CCC(NC(=O)COC)C(O)CNC1CC2(CC(O)C2)Oc2ncc(CC(C)(C)C)cc21 [Example 107, N-((1S)-1-((1R)-2-(((1s,3S,4′S)-6′-(2,2-dimethylpropyl)-3-hydroxy-3′,4′-dihydrospiro[cyclobutane-1,2′-pyrano[2,3-b]pyridin]-4′-yl)amino)-1-hydroxyethyl)-3-buten-1-yl)-2-(methyloxy)acetamide] | – | ≥ 5
7 | 68 | – | – | – | – | – | – | C=CC[C@H](NC(=O)CCOC)[C@H](O)CN[C@H]1CC2(CCC2)Oc2ncc(CC(C)(C)C)cc21 [Example 91, N-((1S)-1-((1R)-2-(((4′S)-6′-(2,2-dimethylpropyl)-3′,4′-dihydrospiro[cyclobutane-1,2′-pyrano[2,3-b]pyridin]-4′-yl)amino)-1-hydroxyethyl)-3-buten-1-yl)-3-(methyloxy)propanamide] | – | ≥ 5
8 | 20 | 72 | – | – | – | – | – | CC#CCC(NC(=O)C1CCC(=O)O1)C(O)CNC1CC2(CCC2)Oc2ncc(CC(C)(C)C)cc21 [Example 88, (S)-N((2R,3S)-1((S)-2,2-spirocyclobutane-6-neopentyl-3′,4′-dihydro-2H-pyrano[2,3-b]pyridin]-4′-ylamino)-2-hydroxyhept-5-yn-3-yl)-5-oxo-tetrahydrofuran-2-carboxamide.] | – | ≥ 5
9 | – | – | 371 | 10000 | 3500 | 515 | 249 | CCC[C@H](NC(=O)[C@@H](C)OC)[C@H](O)CN[C@H]1CC2(CCC2)Oc2c1cc(CC(C)(C)C)nc2Cl [compound 223, (2R)-N-((1S)-1-((1R)-2-(((4′S)-8′-chloro-6′-(2,2-dimethylpropyl)-3′,4′-dihydrospiro[cyclobutane-1,2′-pyrano[2,3-c]pyridin]-4′-yl)amino)-1-hydroxyethyl)butyl)-2-(methyloxy)propanamide] | – | –
10 | – | – | 2720 | 93 | 3700 | 84 | 45 | CCOC[C@H](NC(C)=O)[C@@H](O)CN[C@H]1CC2(CCC2)Oc2ncc(CC(C)(C)C)cc21 [compound 241] | – | –

Continued, molecule first:

Row | Structure (SMILES) | IC50 (BACE1) [nM] | IC50 [1, 4] [nM] | IC50 (BACE1; read-out: BACE 1 FRET assay) [nM] | IC50 ([1]; HEK293) [nM] | IC50 at 10 min (CYP3A4 (CYP3A)) [nM] | HLM [2] [µL/min/mg] | RLM [3] [µL/min/mg] | reduction of Abeta peptide in the brain of the rat (Abeta peptide; brain) [%] | inhibition in vivo at 30 mg/kg (Abeta peptide) [%]
11 | C=CC[C@H](NC(=O)CF)[C@H](O)CN[C@H]1CC2(CCC2)Oc2ncc(CC(C)(C)C)cc21 [Example 90, N-((1S)-1-((1R)-2-(((4′S)-6′-(2,2-dimethylpropyl)-3′,4′-dihydrospiro[cyclobutane-1,2′-pyrano[2,3-b]pyridin]-4′-yl)amino)-1-hydroxyethyl)-3-buten-1-yl)-2-fluoroacetamide] | 68 | – | – | – | – | – | – | – | ≥ 5
12 | CC#CC[C@H](NC(=O)[C@@H](C)OC)[C@H](O)CN[C@H]1CC2(CCC2)Oc2ncc(CC(C)(C)C)cc21 [Example 87, (2R)-N-((1S)-1-((1R)-2-(((4′S)-6′-(2,2-dimethylpropyl)-3′,4′-dihydrospiro[cyclobutane-1,2′-pyrano[2,3-b]pyridin]-4′-yl)amino)-1-hydroxyethyl)-3-pentyn-1-yl)-2-(methyloxy)propanamide] | 109 | 185 | – | – | – | – | – | – | ≥ 5
13 | C=CC[C@H](NC(=O)CCC(C)(C)C)[C@H](O)CN[C@H]1CC2(CCC2)Oc2ncc(CC(C)(C)C)cc21 [compound 245] | – | – | 9250 | 10000 | 300 | 829 | 459 | – | –
14 | C=CC[C@H](NC(=O)[C@H]1CCC(=O)O1)[C@H](O)CN[C@H]1CC2(CCC2)Oc2ncc(CC(C)(C)C)cc21 [compound 211] | – | – | 15 | 57 | 1300 | 104 | 137 | – | –
15 | C=CC[C@H](NC(=O)COC)[C@H](O)CN[C@H]1CC2(CCC2)Oc2c(-c3cccnc3)cc(CC(C)(C)C)cc21 [compound 220] | – | – | 107 | 125 | 300 | 569 | 369 | – | –
16 | C=CC[C@H](NC(=O)[C@@H](C)OC)[C@H](O)CN[C@H]1CC2(CCC2)Oc2c(-c3nccs3)cc(CC(C)C)cc21 [compound 210] | – | – | 92 | 1110 | 200 | 829 | 644 | – | –
17 | C=CC[C@H](NC(=O)COCC)[C@H](O)CN[C@H]1CC2(CCC2)Oc2ncc(CC(C)(C)C)cc21 [compound 244] | – | – | 2450 | 3170 | 1300 | 543 | 176 | – | –
18 | C=CC[C@H](NC(=O)[C@@H](C)OC)[C@H](O)CN[C@H]1CC2(CCC2)Oc2c1cc(CC(C)C)cc2-n1ccnc1 [compound 208, (2R)-N-((1S)-1-((1R)-1-hydroxy-2-(((4S)-8-(1H-imidazol-1-yl)-6-(2-methylpropyl)-3,4-dihydrospiro[chromene-2,1′-cyclobutan]-4-yl)amino)ethyl)-3-buten-1-yl)-2-methoxypropanamide] | – | – | 477 | 416 | 200 | 40.5 | 337 | – | –
